Data on two compounds can be found in US10869928B2, “Lyophilized preparation of cytotoxic dipeptides” (ONCOPEPTIDES AB, priority 2011, dated 2020).

A short description of data set [1]: Determination of dissolution rate (Example 5). The format is physicochemical. The note with it: Solution: 5% glucose + Polysorbate 80. As for the experimental part:
A 5% glucose solution was added to each plastic vial containing J1. The vials were shaken and filtered at different time-points. The filtrate was transferred to glass vials and the amount of dissolved J1 was determined by HPLC.

Data set [2] in a line: Stability of melphalan flufenamide dissolved in DMA in a glucose solution. Conditions: dissolved in DMA (dimethylacetamide) in a glucose solution.
Data set [3] in a line: Stability in aqueous solutions. The format is physicochemical.

Structures are written as SMILES. Structures can show the parent of a compound that is named as a salt.

As to `CCOC(=O)[C@H](Cc1ccc(F)cc1)NC(=O)[C@@H](N)Cc1ccc(N(CCCl)CCCl)cc1` [Experiment J1, melphalanyl-L-p-fluorophenylalanine ethyl ester hydrochloride], the “Time (min) to reach steady state dissolution” value in data set [1] was in the range of 1 to 2 min. Moreover, the degradation in data set [2] came out at 7 % degradation/h. Also, in data set [3] (water), the hydrolysis in water result is given as “quickly hydrolyzed”.
Take `N[C@@H](Cc1ccc(N(CCCl)CCCl)cc1)C(=O)O` [Melphalan, p-[bis-(2-chloroethyl)amino]phenylalanine, reference compound]: in data set [3] (aqueous solutions, relative to J1), the “times more stable in aqueous solutions compared to J1” value is 10,000 times.
